{"source": "PubChem BioAssay (NCI)", "test_in_all_cases": "NCI-60 cell line screen, 48 h", "key": {"NCI-H226 lung": {"system": "NCI-H226 lung"}, "NCI-H460 lung": {"system": "NCI-H460 lung"}, "NCI-H522 lung": {"system": "NCI-H522 lung"}, "NCI/ADR-RES ovarian": {"system": "NCI/ADR-RES ovarian"}, "OVCAR-4 ovarian": {"system": "OVCAR-4 ovarian"}, "OVCAR-5 ovarian": {"system": "OVCAR-5 ovarian"}, "OVCAR-8 ovarian": {"system": "OVCAR-8 ovarian"}, "PC-3 prostate": {"system": "PC-3 prostate"}, "RPMI-8226 leukemia": {"system": "RPMI-8226 leukemia"}, "RXF 393 renal": {"system": "RXF 393 renal"}, "SF-268 CNS": {"system": "SF-268 CNS"}, "SF-295 CNS": {"system": "SF-295 CNS"}, "SF-539 CNS": {"system": "SF-539 CNS"}, "SK-MEL-2 melanoma": {"system": "SK-MEL-2 melanoma"}, "SK-MEL-28 melanoma": {"system": "SK-MEL-28 melanoma"}, "SK-MEL-5 melanoma": {"system": "SK-MEL-5 melanoma"}, "SK-OV-3 ovarian": {"system": "SK-OV-3 ovarian"}, "SN12C renal": {"system": "SN12C renal"}, "SNB-19 CNS": {"system": "SNB-19 CNS"}, "SNB-75 CNS": {"system": "SNB-75 CNS"}, "SR leukemia": {"system": "SR leukemia"}, "SW-620 colon": {"system": "SW-620 colon"}, "T-47D breast": {"system": "T-47D breast"}, "TK-10 renal": {"system": "TK-10 renal"}, "U251 CNS": {"system": "U251 CNS"}, "UACC-257 melanoma": {"system": "UACC-257 melanoma"}, "UACC-62 melanoma": {"system": "UACC-62 melanoma"}, "UO-31 renal": {"system": "UO-31 renal"}}, "note": "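Five compound concentrations were applied to cells in 96-well plates for 48 hours; endpoints were derived by simple linear interpolation of the resulting dose-response curve. GI50 marks 50% less growth. The concentration for full growth arrest is given as TGI.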", "data": [{"smiles": "O=C1C(N2CCN(c3ccccc3)CC2)=C(Cl)C(=O)c2ncccc21", "values": [{"measurement": "GI50", "setting": "NCI-H226 lung", "value": 14.3, "unit": "µM"}, {"measurement": "TGI", "setting": "NCI-H226 lung", "value": 31.9, "unit": "µM"}, {"measurement": "GI50", "setting": "NCI-H460 lung", "value": 6.73, "unit": "µM"}, {"measurement": "TGI", "setting": "NCI-H460 lung", "value": 22.4, "unit": "µM"}, {"measurement": "GI50", "setting": "NCI-H522 lung", "value": 1.73, "unit": "µM"}, {"measurement": "TGI", "setting": "NCI-H522 lung", "value": 3.55, "unit": "µM"}, {"measurement": "GI50", "setting": "NCI/ADR-RES ovarian", "value": 4.33, "unit": "µM"}, {"measurement": "TGI", "setting": "NCI/ADR-RES ovarian", "value": 20.7, "unit": "µM"}, {"measurement": "GI50", "setting": "OVCAR-4 ovarian", "value": 1.79, "unit": "µM"}, {"measurement": "TGI", "setting": "OVCAR-4 ovarian", "value": 3.44, "unit": "µM"}, {"measurement": "GI50", "setting": "OVCAR-5 ovarian", "value": 16.6, "unit": "µM"}, {"measurement": "TGI", "setting": "OVCAR-5 ovarian", "value": 32, "unit": "µM"}, {"measurement": "GI50", "setting": "OVCAR-8 ovarian", "value": 4.72, "unit": "µM"}, {"measurement": "TGI", "setting": "OVCAR-8 ovarian", "value": 17.6, "unit": "µM"}, {"measurement": "GI50", "setting": "PC-3 prostate", "value": 9.22, "unit": "µM"}, {"measurement": "TGI", "setting": "PC-3 prostate", "value": 23.1, "unit": "µM"}, {"measurement": "GI50", "setting": "RPMI-8226 leukemia", "value": 2.1, "unit": "µM"}, {"measurement": "TGI", "setting": "RPMI-8226 leukemia", "value": 5.37, "unit": "µM"}, {"measurement": "GI50", "setting": "RXF 393 renal", "value": 1.87, "unit": "µM"}, {"measurement": "TGI", "setting": "RXF 393 renal", "value": 3.43, "unit": "µM"}, {"measurement": "GI50", "setting": "SF-268 CNS", "value": 15.2, "unit": "µM"}, {"measurement": "TGI", "setting": "SF-268 CNS", "value": 29.6, "unit": "µM"}, {"measurement": "GI50", "setting": "SF-295 CNS", "value": 14.2, "unit": "µM"}, {"measurement": "TGI", "setting": "SF-295 CNS", "value": 27.3, "unit": "µM"}, {"measurement": "GI50", "setting": "SF-539 CNS", "value": 6.96, "unit": "µM"}, {"measurement": "TGI", "setting": "SF-539 CNS", "value": 20, "unit": "µM"}, {"measurement": "GI50", "setting": "SK-MEL-2 melanoma", "value": 11.2, "unit": "µM"}, {"measurement": "TGI", "setting": "SK-MEL-2 melanoma", "value": 23.6, "unit": "µM"}, {"measurement": "GI50", "setting": "SK-MEL-28 melanoma", "value": 3.31, "unit": "µM"}, {"measurement": "TGI", "setting": "SK-MEL-28 melanoma", "value": 10.3, "unit": "µM"}, {"measurement": "GI50", "setting": "SK-MEL-5 melanoma", "value": 13.1, "unit": "µM"}, {"measurement": "TGI", "setting": "SK-MEL-5 melanoma", "value": 25.7, "unit": "µM"}, {"measurement": "GI50", "setting": "SK-OV-3 ovarian", "value": 13.8, "unit": "µM"}, {"measurement": "TGI", "setting": "SK-OV-3 ovarian", "value": 29.9, "unit": "µM"}, {"measurement": "GI50", "setting": "SN12C renal", "value": 4.97, "unit": "µM"}, {"measurement": "TGI", "setting": "SN12C renal", "value": 17.8, "unit": "µM"}, {"measurement": "GI50", "setting": "SNB-19 CNS", "value": 16.1, "unit": "µM"}, {"measurement": "TGI", "setting": "SNB-19 CNS", "value": 30.6, "unit": "µM"}, {"measurement": "GI50", "setting": "SNB-75 CNS", "value": 17.5, "unit": "µM"}, {"measurement": "TGI", "setting": "SNB-75 CNS", "value": 38, "unit": "µM"}, {"measurement": "GI50", "setting": "SR leukemia", "value": 1.89, "unit": "µM"}, {"measurement": "TGI", "setting": "SR leukemia", "value": 6.42, "unit": "µM"}, {"measurement": "GI50", "setting": "SW-620 colon", "value": 1.67, "unit": "µM"}, {"measurement": "TGI", "setting": "SW-620 colon", "value": 3.89, "unit": "µM"}, {"measurement": "GI50", "setting": "T-47D breast", "value": 1.76, "unit": "µM"}, {"measurement": "TGI", "setting": "T-47D breast", "value": 3.95, "unit": "µM"}, {"measurement": "GI50", "setting": "TK-10 renal", "value": 12.4, "unit": "µM"}, {"measurement": "TGI", "setting": "TK-10 renal", "value": 25.5, "unit": "µM"}, {"measurement": "GI50", "setting": "U251 CNS", "value": 10.3, "unit": "µM"}, {"measurement": "TGI", "setting": "U251 CNS", "value": 22.7, "unit": "µM"}, {"measurement": "GI50", "setting": "UACC-257 melanoma", "value": 2.21, "unit": "µM"}, {"measurement": "TGI", "setting": "UACC-257 melanoma", "value": 6.22, "unit": "µM"}, {"measurement": "GI50", "setting": "UACC-62 melanoma", "value": 3.43, "unit": "µM"}, {"measurement": "TGI", "setting": "UACC-62 melanoma", "value": 12.4, "unit": "µM"}, {"measurement": "GI50", "setting": "UO-31 renal", "value": 1.91, "unit": "µM"}, {"measurement": "TGI", "setting": "UO-31 renal", "value": 4.3, "unit": "µM"}]}]}
